Measurements published in publication PMC9305623, “Next generation GLP-1/GIP/glucagon triple agonists normalize body weight in obese mice” (Molecular Metabolism, 2022).
*1 amine or outer side, *2 acyl side, *3 side chain or, on linkers, in order; H or OH if unused. Where a SMILES comes first, the peptide text is derived from it. Side-chain parts run from the residue outwards. [ ]: non-standard residue; d: D form. The star is where a group is joined. C20 diacid = O=C(O)CCCCCCCCCCCCCCCCCCC(=O)*; γGlu = O=C(O)[C@H](CCC(=O)[*:2])N[*:1]; εLys = N[C@@H](CCCCN[*:1])C(=O)[*:2]; Aib = CC(C)(N)C(=O)O

Columns and labels:
[1] = target: T1, hGIP Receptor (Homo sapiens, UniProt P48546); test: Receptor activation: cAMP production by CRE-luciferase reporter in stably transfected BHK cells; type: cell-based; details: compared to the native ligand for the receptor
T1 construct: expressed in transfected cells; host or cells: baby hamster kidney (BHK) cells, stably transfected, with CRE-firefly luciferase reporter
T1 sequence (P48546 22-466): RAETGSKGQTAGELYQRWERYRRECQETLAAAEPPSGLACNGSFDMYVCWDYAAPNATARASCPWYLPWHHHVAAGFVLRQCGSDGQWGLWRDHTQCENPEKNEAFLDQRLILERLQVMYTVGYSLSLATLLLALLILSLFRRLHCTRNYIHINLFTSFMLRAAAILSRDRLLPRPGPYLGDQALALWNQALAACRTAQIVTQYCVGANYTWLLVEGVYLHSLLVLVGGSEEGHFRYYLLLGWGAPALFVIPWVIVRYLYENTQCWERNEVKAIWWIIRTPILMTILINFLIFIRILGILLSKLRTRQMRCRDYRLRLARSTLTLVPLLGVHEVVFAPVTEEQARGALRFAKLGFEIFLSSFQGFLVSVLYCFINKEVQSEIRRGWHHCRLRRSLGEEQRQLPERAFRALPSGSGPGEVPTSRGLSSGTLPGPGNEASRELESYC
Protocol: (§1) Cyclic AMP (cAMP) production was assessed as a proxy for receptor activation using stably transfected baby hamster kidney (BHK) cell lines expressing the DNA for one individual receptor (GLP-1R, GIPR, GcgR; human- or mouse-specific sequence) and the DNA for the firefly luciferase reporter gene linked to the cAMP response element (CRE). The cells were kept in continuous culture at 37 °C and 5% CO2 in Dulbecco's Modified Eagle Medium (DMEM) supplemented with 10% heat-inactivated fetal bovine serum (HI-FBS), 300 μg/mL hygromycin, and 500 μg/mL G418; for cell lines expressing GIPR, the G418 concentration was lowered to 400 μg/mL. Cells were plated in a 96-well poly-D-lysine-coated plate at 5,000 cells per well in growth media and incubated overnight at 37 °C with 5% CO2. After the overnight incubation, the media was removed, the plate was washed once in Dulbecco's phosphase-buffered saline (DPBS), and 50 μL of assay buffer (DMEM without phenol red, 10 mM HEPES, 1x Glutamax, 1% ovalbumin, 0.1% Pluronic F-68) was added to each well. […] Aliquots of the dilution curves were added to the cell plate in a volume of 50 μL per well resulting in final assay concentrations ranging from 1 × 10^−14 to 1 × 10^−7 M. The assay plate was incubated for 3 h at 37 °C and 5% CO2. After the incubation, the assay plate was washed once with DPBS. A 100 μL aliquot of DPBS was added to each well followed by 100 μL of steadylite plus reagent (PerkinElmer). The assay plate was covered to protect reagent from light, shaken at 250 rpm at room temperature for 30 min, and read in a microtiter plate reader. EC50 values were calculated using Prism software (GraphPad) with the nonlinear regression log(agonist) vs. response. A minimum of two replicates were measured for each sample.

[2] = target: T2, hGLP-1 Receptor (Homo sapiens, UniProt P43220); test: as above; type: cell-based; details: compared to the native ligand for the receptor
T2 construct: expressed in transfected cells; host or cells: baby hamster kidney (BHK) cells, stably transfected, with CRE-firefly luciferase reporter
T2 sequence (P43220 24-463): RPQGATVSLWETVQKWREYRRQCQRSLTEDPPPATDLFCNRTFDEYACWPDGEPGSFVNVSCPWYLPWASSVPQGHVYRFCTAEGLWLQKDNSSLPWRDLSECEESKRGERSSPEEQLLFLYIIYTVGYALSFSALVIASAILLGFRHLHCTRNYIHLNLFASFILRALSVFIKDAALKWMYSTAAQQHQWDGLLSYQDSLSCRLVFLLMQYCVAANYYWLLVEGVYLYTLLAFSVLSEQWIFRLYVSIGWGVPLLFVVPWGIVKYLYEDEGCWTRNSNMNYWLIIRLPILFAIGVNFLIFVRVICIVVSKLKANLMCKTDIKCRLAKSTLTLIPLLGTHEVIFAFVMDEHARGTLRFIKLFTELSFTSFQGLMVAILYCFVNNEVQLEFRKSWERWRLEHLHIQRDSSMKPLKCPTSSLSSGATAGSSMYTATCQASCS
Protocol: as §1

[3] = target: T3, hGcg Receptor (Homo sapiens, UniProt P47871); test: as above; type: cell-based; details: compared to the native ligand for the receptor
T3 construct: expressed in transfected cells; host or cells: baby hamster kidney (BHK) cells, stably transfected, with CRE-firefly luciferase reporter
T3 sequence (P47871 26-477): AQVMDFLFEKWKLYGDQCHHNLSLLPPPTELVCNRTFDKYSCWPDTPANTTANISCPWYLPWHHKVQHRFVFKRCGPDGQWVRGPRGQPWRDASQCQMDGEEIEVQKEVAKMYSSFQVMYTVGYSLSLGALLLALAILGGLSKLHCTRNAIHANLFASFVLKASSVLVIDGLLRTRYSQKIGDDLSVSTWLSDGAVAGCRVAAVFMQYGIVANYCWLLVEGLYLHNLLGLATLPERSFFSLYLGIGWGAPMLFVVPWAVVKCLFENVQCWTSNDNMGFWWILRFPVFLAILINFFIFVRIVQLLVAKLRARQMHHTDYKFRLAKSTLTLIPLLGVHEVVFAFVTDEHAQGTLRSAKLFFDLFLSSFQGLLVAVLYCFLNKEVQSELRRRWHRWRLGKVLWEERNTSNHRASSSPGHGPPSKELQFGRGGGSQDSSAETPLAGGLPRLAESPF
Protocol: as §1

[4] = in vivo; design: species or system Göttingen minipigs; details: female, Göttingen, minipig, iv, 2 nmol/kg
Protocol: Studies were conducted in accordance with the Protection of Animals Act, the Act on Experiments on Animals, and the Standard Operating Procedures for Experiments on Animals at Novo Nordisk A/S. The experiments were performed under the supervision and approval of the Danish Government Animal Experiments Inspectorate and the Novo Nordisk Ethical Review Counsel. Female Göttingen minipigs (Ellegaard Göttingen Minipigs A/S), 7–14 months old and weighing 16–35 kg, were housed individually and fed once daily with a restricted SDS minipig diet (Special Diets Services). At least one week before the study, two permanent central venous catheters were implanted in the caudal vena cava of each animal. The animals were fasted for approximately 18 h before dosing and 4 h after dosing but had ad libitum access to water during the whole period. Test compounds dissolved to a concentration of 20–40 nmol/mL in a vehicle (pH 7.4) containing 0.025% polysorbate-20, 10 mM sodium phosphate, and 250 mM glycerol were administered via an intravenous injection through one catheter at a dose of 2 nmol/kg. Blood samples were collected in 8 mM aqueous EDTA for up to 14 days post dosing, preferably through the other catheter, then centrifuged at 4 °C and ∼2000g for 10 min. Plasma was isolated and immediately frozen until RP-HPLC/MS analysis. Individual plasma concentration–time profiles were analysed by a non-compartmental model in Phoenix WinNonLin software (Pharsight Inc.), and the resulting terminal half-lives were determined at the harmonic mean.

SMILES	hGIP Receptor Relative Potency % [1] [%]	hGLP-1 Receptor Relative Potency % [2] [%]	hGcg Receptor Relative Potency % [3] [%]	Vd [4] [L/kg]	clearance [4] [mL/h/kg]
CC[C@H](C)[C@H](NC(=O)[C@H](CO)NC(=O)[C@H](Cc1ccc(O)cc1)NC(=O)[C@H](CC(=O)O)NC(=O)[C@H](CO)NC(=O)[C@@H](NC(=O)[C@H](Cc1ccccc1)NC(=O)[C@@H](NC(=O)CNC(=O)[C@H](CCC(N)=O)NC(=O)C(C)(C)NC(=O)[C@@H](N)Cc1ccc(O)cc1)[C@@H](C)O)[C@@H](C)O)C(=O)N[C@@H](Cc1ccc(O)cc1)C(=O)N[C@@H](CC(C)C)C(=O)N[C@@H](CC(=O)O)C(=O)N[C@@H](CCCCNC(=O)COCCOCCNC(=O)COCCOCCNC(=O)CC[C@H](NC(=O)CCCCCCCCCCCCCCCCC(=O)O)C(=O)O)C(=O)N[C@@H](CCC(N)=O)C(=O)N[C@@H](C)C(=O)N[C@@H](C)C(=O)NC(C)(C)C(=O)N[C@@H](CCC(=O)O)C(=O)N[C@@H](Cc1ccccc1)C(=O)N[C@H](C(=O)N[C@@H](CC(N)=O)C(=O)N[C@@H](Cc1c[nH]c2ccccc12)C(=O)N[C@@H](CC(C)C)C(=O)N[C@@H](CC(C)C)C(=O)N[C@@H](C)C(=O)NCC(=O)NCC(=O)N1CCC[C@H]1C(=O)N[C@@H](CO)C(=O)N[C@@H](CO)C(=O)NCC(=O)N[C@@H](C)C(=O)N1CCC[C@H]1C(=O)N1CCC[C@H]1C(=O)N1CCC[C@H]1C(=O)N[C@@H](CO)C(N)=O)C(C)C [Compound 7]	38	93	12	0.121	1.4
CC[C@H](C)[C@H](NC(=O)[C@H](CO)NC(=O)[C@H](Cc1ccc(O)cc1)NC(=O)[C@H](CC(=O)O)NC(=O)[C@H](CO)NC(=O)[C@@H](NC(=O)[C@H](Cc1ccccc1)NC(=O)[C@@H](NC(=O)CNC(=O)[C@H](CCC(N)=O)NC(=O)C(C)(C)NC(=O)[C@@H](N)Cc1ccc(O)cc1)[C@@H](C)O)[C@@H](C)O)C(=O)N[C@@H](Cc1ccc(O)cc1)C(=O)N[C@@H](CC(C)C)C(=O)N[C@@H](CC(=O)O)C(=O)N[C@@H](CCCCNC(=O)COCCOCCNC(=O)COCCOCCNC(=O)CC[C@H](NC(=O)CCCCCCCCCCCCCCCCCCC(=O)O)C(=O)O)C(=O)N[C@@H](CCC(N)=O)C(=O)N[C@@H](C)C(=O)N[C@@H](C)C(=O)NC(C)(C)C(=O)N[C@@H](CCC(=O)O)C(=O)N[C@@H](Cc1ccccc1)C(=O)N[C@H](C(=O)N[C@@H](CC(N)=O)C(=O)N[C@@H](Cc1c[nH]c2ccccc12)C(=O)N[C@@H](CC(C)C)C(=O)N[C@@H](CC(C)C)C(=O)N[C@@H](C)C(=O)NCC(=O)NCC(=O)N1CCC[C@H]1C(=O)N[C@@H](CO)C(=O)N[C@@H](CO)C(=O)NCC(=O)N[C@@H](C)C(=O)N1CCC[C@H]1C(=O)N1CCC[C@H]1C(=O)N1CCC[C@H]1C(=O)N[C@@H](CO)C(N)=O)C(C)C [Compound 8]	39	101	6	0.154	1.2
CC[C@H](C)[C@H](NC(=O)[C@H](CO)NC(=O)[C@H](Cc1ccc(O)cc1)NC(=O)[C@H](CC(=O)O)NC(=O)[C@H](CO)NC(=O)[C@@H](NC(=O)[C@H](Cc1ccccc1)NC(=O)[C@@H](NC(=O)CNC(=O)[C@H](CCC(N)=O)NC(=O)C(C)(C)NC(=O)[C@@H](N)Cc1c[nH]cn1)[C@@H](C)O)[C@@H](C)O)C(=O)N[C@@H](Cc1ccc(O)cc1)C(=O)N[C@@H](CC(C)C)C(=O)N[C@@H](CCC(=O)O)C(=O)N[C@@H](CCCCNC(=O)[C@@H](N)CCCCNC(=O)[C@@H](N)CCCCNC(=O)CC[C@H](NC(=O)CCCCCCCCCCCCCCCCCCC(=O)O)C(=O)O)C(=O)N[C@@H](CCC(N)=O)C(=O)N[C@@H](C)C(=O)N[C@@H](C)C(=O)NC(C)(C)C(=O)N[C@@H](CCC(=O)O)C(=O)N[C@@H](Cc1ccccc1)C(=O)N[C@H](C(=O)N[C@@H](CCC(N)=O)C(=O)N[C@@H](Cc1c[nH]c2ccccc12)C(=O)N[C@@H](CC(C)C)C(=O)N[C@@H](CC(C)C)C(=O)N[C@@H](CCC(=O)O)C(=O)NCC(=O)NCC(=O)N1CCC[C@H]1C(=O)N[C@@H](CO)C(=O)N[C@@H](CO)C(=O)NCC(=O)N[C@@H](C)C(=O)N1CCC[C@H]1C(=O)N1CCC[C@H]1C(=O)N1CCC[C@H]1C(=O)N[C@@H](CO)C(N)=O)C(C)C [Compound 12] (H-H[Aib]QGTFTSDYSIYLEK([εLys-εLys-γGlu-C20 diacid])QAA[Aib]EFVQWLLEGGPSSGAPPPS-NH2)	19	410	3	–	–
CC[C@H](C)[C@H](NC(=O)[C@H](CO)NC(=O)[C@H](Cc1ccc(O)cc1)NC(=O)[C@H](CC(=O)O)NC(=O)[C@H](CO)NC(=O)[C@@H](NC(=O)[C@H](Cc1ccccc1)NC(=O)[C@@H](NC(=O)CNC(=O)[C@H](CCC(N)=O)NC(=O)C(C)(C)NC(=O)[C@@H](N)Cc1ccc(O)cc1)[C@@H](C)O)[C@@H](C)O)C(=O)N[C@@H](Cc1ccc(O)cc1)C(=O)N[C@@H](CC(C)C)C(=O)N[C@@H](CCC(=O)O)C(=O)N[C@@H](CCCCNC(=O)[C@@H](N)CCCCNC(=O)[C@@H](N)CCCCNC(=O)CC[C@H](NC(=O)CCCCCCCCCCCCCCCCCCC(=O)O)C(=O)O)C(=O)N[C@@H](CCC(N)=O)C(=O)N[C@@H](C)C(=O)N[C@@H](C)C(=O)NC(C)(C)C(=O)N[C@@H](CCC(=O)O)C(=O)N[C@@H](Cc1ccccc1)C(=O)N[C@H](C(=O)N[C@@H](CCC(N)=O)C(=O)N[C@@H](Cc1c[nH]c2ccccc12)C(=O)N[C@@H](CC(C)C)C(=O)N[C@@H](CC(C)C)C(=O)N[C@@H](CCC(=O)O)C(=O)NCC(=O)NCC(=O)N1CCC[C@H]1C(=O)N[C@@H](CO)C(=O)N[C@@H](CO)C(=O)NCC(=O)N[C@@H](C)C(=O)N1CCC[C@H]1C(=O)N1CCC[C@H]1C(=O)N1CCC[C@H]1C(=O)N[C@@H](CO)C(N)=O)C(C)C [Compound 10] (H-Y[Aib]QGTFTSDYSIYLEK([εLys-εLys-γGlu-C20 diacid])QAA[Aib]EFVQWLLEGGPSSGAPPPS-NH2)	150	244	11	–	–
